The subject of data set [1] is MCF-7 cells. The data set is described as follows: Cellular uptake (platinum by HR-CS-AAS), MCF-7. To be noted: MCF-7, 20 μM. The class given is cell-based, human. The protocol: In order to reach the DNA, the complexes must first pass through the cell membrane and penetrate into the nuclei. Therefore, the cellular uptake kinetics of GW7604-Alk-PtCl3 complexes were studied using the example of GW7604-Pent-PtCl3. This complex and Cisplatin, respectively, were incubated at a concentration of 20 μM with MCF-7 or SKBr3 cells. After various time points [i.e., 0 (3 min), 0.5, 1, 2, 4, and 8 h], cell pellets were prepared, and the platinum content was quantified by high-resolution continuum source atomic absorption spectrometry (HR-CS-AAS).[52]
After thawing of the cell/nuclei pellets, they were resuspended in ultrapure water (Siemens LaboStar, Günzburg, Germany; 300 μL) and lyzed with a sonotrode (Bandelin Sonoplus, Berlin, Germany; parameters 20 s, 9 cycles, 80% power). Graphite furnace (GF) AAS was used to quantify the lysates concerning their content of platinum (λ = 265.9450 nm). For this purpose, a contrAA 700 High-Resolution-Continous Source AAS (Analytik Jena, Jena, Germany) was employed, while atomization took place by electrothermal heating of graphite tubes with an inserted platform (Analytik Jena, Jena, Germany). A time–temperature program reported in the literature[25] was followed with minor adjustments. The liquid samples kept in 0.5 mL polystyrene vials (Gesellschaft für Analysentechnik, Salzwedel, Germany) were injected directly into the pyrolytically coated tubes using an MPE 60 autosampler (Analytik Jena, Jena, Germany). Throughout the measurements, argon (Alphagaz 1, 99.999%, Air Liquide, Düsseldorf, Germany) served as the purge and protective gas. The spectrometer was monitored with the ASpect CS software, version 2.3.1.0 (Analytik Jena, Jena, Germany). For all runs, the mean integrated absorbance was determined after three injections of each standard or sample. Calibration was performed by an appropriate dilution of a solution of Cisplatin (Sigma-Aldrich, Taufkirchen, Germany) obtaining five standards (2–10 μg/L, R^2 ≥ 0.982). Each cell/nuclei lysate was quantified concerning its protein content following the method of Bradford[71] in order to express the uptake as the amount of compound (pmol) in the lysate relative to its protein mass (mg). Therefore, solutions of Albumin fraction V (Carl Roth, Karlsruhe, Germany) diluted with ultrapure water were adduced for the calibration (six standards, 50–300 μg/mL, R^2 ≥ 0.996). A volume of 20 μL of the Albumin standards or the lysates was added to a 96-well plate (Sarstedt, Nürmbrecht, Germany) and supplemented with 200 μL of Bradford’s reagent (Roti-Nanoquant, Carl Roth, Karlsruhe, Germany; diluted 5-fold with ultrapure water). All standards and lysates were measured in duplicate. After incubating for 5 min at rt, the absorbance (λ = 595 nm) was read on a microplate reader (Tecan Safire 2, Männedorf, Switzerland). The cellular/nuclear uptake (pmol complex/mg protein) is given as the mean ± SD of 2 independent experiments.
For cellular uptake studies, 1.0 × 10^6 of MCF-7 and SKBr3 cells in their exponential growing phase were seeded into 25 cm^2 cell culture flasks and incubated for 24 h under a humidified atmosphere (5% CO2/95% air) at 37 °C. Stock solutions of the platinum complexes (GW7604-Pent-PtCl3, Cisplatin) in DMF were freshly prepared and diluted with complete DMEM containing 10% FCS to the desired concentration [final DMF concentration of 0.1% (v/v), final complex concentration of 20 μM]. The medium in the cell culture flasks was replaced with 3 mL of fresh cell culture medium containing the compounds, and the flasks were incubated under a humidified atmosphere at 37 °C for 3 min, 0.5, 1, 2, 4, and 8 h. Cell pellets were prepared by removing the medium, washing two times with phosphate-buffered saline (PBS), and detaching the cells with Accutase (GE Healthcare, BioSciences, Chicago, IL, USA). Subsequently, cells were pelleted by centrifugation (4 °C, 380g, 3 min). […]

For another data set, the system named is nuclei of MCF-7 cells. Description: Nuclear uptake (platinum by HR-CS-AAS), MCF-7. The class given is cell-based, human. To be noted: MCF-7, 20 μM, 24 h; pmol complex/mg protein. The protocol: (§1) Fluorescence in the nuclei is not detectable. Therefore, the nuclei were analyzed for their platinum content using HR-CS-AAS.[25]
(§2) After thawing of the cell/nuclei pellets, they were resuspended in ultrapure water (Siemens LaboStar, Günzburg, Germany; 300 μL) and lyzed with a sonotrode (Bandelin Sonoplus, Berlin, Germany; parameters 20 s, 9 cycles, 80% power). Graphite furnace (GF) AAS was used to quantify the lysates concerning their content of platinum (λ = 265.9450 nm). For this purpose, a contrAA 700 High-Resolution-Continous Source AAS (Analytik Jena, Jena, Germany) was employed, while atomization took place by electrothermal heating of graphite tubes with an inserted platform (Analytik Jena, Jena, Germany). […] The spectrometer was monitored with the ASpect CS software, version 2.3.1.0 (Analytik Jena, Jena, Germany). For all runs, the mean integrated absorbance was determined after three injections of each standard or sample. […] Each cell/nuclei lysate was quantified concerning its protein content following the method of Bradford[71] in order to express the uptake as the amount of compound (pmol) in the lysate relative to its protein mass (mg). […] All standards and lysates were measured in duplicate. After incubating for 5 min at rt, the absorbance (λ = 595 nm) was read on a microplate reader (Tecan Safire 2, Männedorf, Switzerland). […]

The next data set concerns nuclei of SKBr3 cells. Description: Nuclear uptake (platinum by HR-CS-AAS), SKBr3. The class given is cell-based, human. As to conditions: SKBr3, 20 μM, 24 h. The procedure: as §1, §2
The subject of the next data set is plasmid pSport1. The data set is described as follows: DNA interference assay (gel electrophoresis). In kind it is binding. To be noted: 20 μM, 4 h, 37 °C. The protocol:
Therefore, the general possibility of DNA interaction was examined by incubating the complex with the empty plasmid pSport1 at a concentration of 20 μM for 4 h at 37 °C. The gel electrophoretic separation[60] […] The ladder structure differs from both the untreated sample (Figure 9A) and the solvent control (Figure 9B) and is similar to that of Cisplatin (Figure 9C).
Two μL (conc. 0.5 μg/μL) of an empty pSport1 (4109 base pairs) plasmid was mixed with 2 μL of each test compound (200 μM in DMF) and diluted with 16 μL of nuclease-free water to reach a final concentration of 20 μM for GW7604-Pent-PtCl3 and […] for Cisplatin. Afterward, this mixture was incubated for 4 h at 37 °C under gentle shaking. Samples were loaded with gel loading buffer on agarose gel [0.5% (w/v) in 1 × TRIS-acetate-EDTA (TAE) buffer + 0.004% Midori Green Advance]. The following running parameters were used: 95 min at 3 V/cm in 1 × TAE buffer. Images were visualized under UV light (254 nm).

Data set [2] has as its system MCF-7 cells. Description: Hormonal (agonistic) activity: growth stimulation. In kind it is cell-based, human. To be noted: MCF-7, low concentrations (<100 nM), data not shown. An excerpt:
However, both agonistic properties and SERD effects can be excluded.

Turning to `CCC(=C(c1ccc(O)cc1)c1ccc(C=CC(=O)OCCC[CH]2[CH2][Pt-]2([Cl])([Cl])[Cl])cc1)c1ccccc1.[K+]` (mixture of isomers) [GW7604-Pent-PtCl3, Potassium trichlorido[η^2-(pent-4-en-1-yl (E)-3-(4-((E/Z)-1-(4-hydroxyphenyl)-2-phenylbut-1-en-1-yl)phenyl)acrylate)]platinate(II)], the intracellular platinum amount in the data set with MCF-7 cells [1] (0.5 h) stood at 130 pmol/mg; in the data set with MCF-7 cells [1] (1 h) it was 265 pmol/mg; in the data set on MCF-7 cells [1] (2 h) it was 371 pmol/mg; with MCF-7 cells [1] (4 h), 659 pmol/mg; in the data set on MCF-7 cells [1] (8 h), 818 pmol/mg. Also, the “platinum content in the nuclei” value came out at 145 pmol/mg in the data set with nuclei of MCF-7 cells and 96 pmol/mg in the data set with nuclei of SKBr3 cells. Also, in the data set on plasmid pSport1, the “interaction with plasmid DNA” value was “binds to DNA”. For the same compound, the “agonistic effect: stimulation of growth” value with MCF-7 cells [2] is “neither stimulated the growth”.

The record behind these values is publication PMC10983001, “Development of Cytotoxic GW7604-Zeise’s Salt Conjugates as Multitarget Compounds with Selectivity for Estrogen Receptor- Positive Tumor Cells” (Journal of Medicinal Chemistry, 2024).
